From US20260159499A1, “COMPOUND AS FAK INHIBITOR AND USE THEREOF” (WIGEN BIOMEDICINE TECHNOLOGY (SHANGHAI) CO., LTD., priority 2021, published 2026) come the findings set out here.

pIC50: −log10 of the molar value.

Test [1] concerns PC3 cells. The experiment in a line: PC3 cell proliferation, 3D activity detection. In kind it is cell-based, human. As to conditions: Homo sapiens, PC-3, 336 h; PC3, 3D culture, 14 days, class symbol; read-out: 3D IC50 against PC3 cells. How it is done: 3D activity detection: PC3 cells were seeded in a 96-well plate at 1200 cells/well, and 3D culture was performed. 14 days after the compound serially diluted was added, the growth of the cells was determined. The inhibition percentage and IC50 of the compound were calculated compared to the DMSO control group.

The next test addresses FAK recombinant protein (Homo sapiens, UniProt Q05397). The experiment in a line: Inhibitory activity against FAK enzyme. In kind it is biochemical. As to conditions: TK substrate, ATP. On the procedure:
The compound serially diluted with DMSO and a FAK recombinant protein were mixed, and the mixture was left to stand at room temperature for 10 min. A biotin-labeled TK substrate (TK) and ATP were then added. […] After the mixture was incubated at room temperature for 1 h, the fluorescence intensity at 615 nm and 665 nm was measured. The ratio of the fluorescence intensity at 665 nm and 615 nm was calculated. The inhibition percentages and IC50 of the compounds were calculated compared to the DMSO control group.

Test [2] concerns PC3 cells. Nature of the test: PC3 cell proliferation, 2D activity detection. The conditions noted are these: Homo sapiens, PC-3; PC3, 2D, 72 h, class symbol; read-out: 2D IC50 against PC3 cells. In kind it is cell-based, human. On the procedure:
2D activity detection: 1200 PC3 cells were seeded in a 96-well plate. After overnight adherence culture, the compound serially diluted was added. 72 h after addition, Cell Titer-Lumi (Beyotime C0068XL) was added to measure the ATP content in the cells. The growth of the cells was evaluated, and IC50 of the compounds against cell growth was calculated.

FAK recombinant protein, sequence (Q05397 whole entry, species assumed): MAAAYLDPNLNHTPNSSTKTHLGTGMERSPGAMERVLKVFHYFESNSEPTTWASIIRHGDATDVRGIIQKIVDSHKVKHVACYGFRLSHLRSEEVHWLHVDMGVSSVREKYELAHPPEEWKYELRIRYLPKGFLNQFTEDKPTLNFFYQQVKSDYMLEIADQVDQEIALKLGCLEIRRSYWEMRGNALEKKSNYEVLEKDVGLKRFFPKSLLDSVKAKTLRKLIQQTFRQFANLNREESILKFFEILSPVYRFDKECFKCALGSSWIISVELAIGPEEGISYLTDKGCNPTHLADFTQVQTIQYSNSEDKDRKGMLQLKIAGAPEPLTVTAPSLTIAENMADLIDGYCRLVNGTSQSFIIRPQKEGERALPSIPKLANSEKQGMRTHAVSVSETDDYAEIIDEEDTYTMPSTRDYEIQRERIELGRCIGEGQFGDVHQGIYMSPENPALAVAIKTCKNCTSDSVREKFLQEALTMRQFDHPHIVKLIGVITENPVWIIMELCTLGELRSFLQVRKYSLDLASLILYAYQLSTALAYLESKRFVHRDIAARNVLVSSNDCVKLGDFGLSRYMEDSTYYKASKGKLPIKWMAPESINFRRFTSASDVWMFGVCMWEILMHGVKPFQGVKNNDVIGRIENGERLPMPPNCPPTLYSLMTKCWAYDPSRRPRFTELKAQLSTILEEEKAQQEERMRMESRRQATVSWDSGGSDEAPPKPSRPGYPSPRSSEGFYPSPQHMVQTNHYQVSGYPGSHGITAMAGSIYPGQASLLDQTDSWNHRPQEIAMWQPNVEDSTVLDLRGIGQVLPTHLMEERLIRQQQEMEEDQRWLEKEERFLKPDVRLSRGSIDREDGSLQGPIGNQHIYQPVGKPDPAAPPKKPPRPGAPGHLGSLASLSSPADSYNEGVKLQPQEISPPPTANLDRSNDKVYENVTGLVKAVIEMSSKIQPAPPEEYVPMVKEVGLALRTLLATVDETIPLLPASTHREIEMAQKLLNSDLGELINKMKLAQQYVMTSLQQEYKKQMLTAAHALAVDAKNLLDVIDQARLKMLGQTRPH

Usually pIC50 stands for the negative decadic logarithm of the IC50, by convention in mol/L. Regarding `COc1cc(C(=O)NC2CC3(CCN(C)CC3)C2)ccc1Nc1ncc(C(F)(F)F)c(Oc2cccc3c2C(=O)N(C)C3)n1` [Compound 45], the pIC50 with PC3 cells [1] is over 8.30; on FAK recombinant protein it was over 8.00; in the test with PC3 cells [2] it was under 5.70.
The corresponding values for `COc1cc(C(=O)NC2CCC3(CC2)CN(C)C3)ccc1Nc1ncc(C(F)(F)F)c(Oc2cccc3c2C(=O)N(C)C3)n1` [Compound 46] are 7.30 to 8.30, over 8.00 and under 5.70.
The like results for `[2H]C([2H])([2H])N1CCC2(CC1)CC(NC(=O)c1cc(OC)c(Nc3ncc(C(F)(F)F)c(Oc4cccc5c4C(=O)N(C)C5)n3)cc1F)C2` [Compound 47] were, in that order, over 8.30, over 8.00 and under 5.70.
The corresponding values for `[2H]C([2H])([2H])N1CC2(CCC(NC(=O)c3cc(OC)c(Nc4ncc(C(F)(F)F)c(Oc5cccc6c5C(=O)N(C)C6)n4)cc3F)CC2)C1` [Compound 48] are 7.30 to 8.30, over 8.00 and under 5.70.
On to `COc1cc(C(=O)NC2CC3(CCN(C)CC3)C2)c(F)cc1Nc1ncc(C(F)(F)F)c(Cc2cccc3c2C(=O)N(C)C3)n1` [Compound 49, 2-fluoro-5-methoxy-4-((4-((2-methyl-3-oxoisoindolin-4-yl)methyl)-5-(trifluoromethyl)pyrimidin-2-yl)amino)-N-(7-methyl-7-azaspiro[3.5]nonan-2-yl)benzamide], for which the figures for the pIC50 in the test on PC3 cells [1], on FAK recombinant protein and with PC3 cells [2] were over 8.30, over 8.00 and under 5.70, respectively.
The corresponding values for `COc1cc(C(=O)NC2CCC3(CC2)CN(C)C3)c(F)cc1Nc1ncc(C(F)(F)F)c(Cc2cccc3c2C(=O)N(C)C3)n1` [Compound 50] are 7.30 to 8.30, over 8.00 and under 5.70.
The corresponding values for `COc1cc(C(=O)NC2CCC3(CC2)CCN(C)C3)c(F)cc1Nc1ncc(C(F)(F)F)c(Cc2cccc3c2C(=O)N(C)C3)n1` (stereo not drawn) [Compound 53] are 7.30 to 8.30, over 8.00 and under 5.70.
The corresponding values for `COc1cc(C(=O)NC2CCC3(CC2)CCN(C)CC3)c(F)cc1Nc1ncc(C(F)(F)F)c(Cc2cccc3c2C(=O)N(C)C3)n1` [Compound 54] are 7.30 to 8.30, 7.30 to 8.00 and under 5.70.
As to `COc1cc(C(=O)NC2CC3(CCN(C)CC3)C2)c(Cl)cc1Nc1ncc(C(F)(F)F)c(Cc2cccc3c2C(=O)N(C)C3)n1` [Compound 55], the pIC50 with PC3 cells [1] was over 8.30; on FAK recombinant protein it was over 8.00; with PC3 cells [2], under 5.70.
The like results for `COc1cc(C(=O)NC2CCC3(CC2)CN(C)C3)c(Cl)cc1Nc1ncc(C(F)(F)F)c(Cc2cccc3c2C(=O)N(C)C3)n1` [Compound 56] were, in that order, 7.30 to 8.30, over 8.00 and under 5.70.
The corresponding values for `COc1cc(C(=O)NC2CC3(CCN(C)CC3)C2)ccc1Nc1ncc(C(F)(F)F)c(Cc2cccc3c2C(=O)N(C)C3)n1` [Compound 57] are over 8.30, over 8.00 and under 5.70.
The corresponding values for `COc1cc(C(=O)NC2CCC3(CC2)CN(C)C3)ccc1Nc1ncc(C(F)(F)F)c(Cc2cccc3c2C(=O)N(C)C3)n1` [Compound 58] are 7.30 to 8.30, over 8.00 and under 5.70.
As to `COc1cc(N2CCC3(CCN(C)CC3)C2=O)c(F)cc1Nc1ncc(C(F)(F)F)c(Oc2cccc3c2C(=O)N(C)C3)n1` [Compound 61, 2-(2-fluoro-5-methoxy-4-((4-((2-methyl-3-oxoisoindol-4-yl)oxy)-5-(trifluoromethyl)pyrimidin-2-yl)amino)phenyl)-8-methyl-2,8-diazaspiro[4.5]decan-1-one], the pIC50 in the test with PC3 cells [1] is 7.30 to 8.30; at FAK recombinant protein, over 8.00; in the test with PC3 cells [2], under 5.70.
Take `COc1cc(N2CC3(CCN(C)CC3)OC2=O)c(F)cc1Nc1ncc(C(F)(F)F)c(Oc2cccc3c2C(=O)N(C)C3)n1` [Compound 63]: the figures for the pIC50 in the test with PC3 cells [1], at FAK recombinant protein and in the test on PC3 cells [2] were 7.30 to 8.30, 7.30 to 8.00 and under 5.70, respectively.
As for `COc1cc(N2CC3(CCC2=O)CCN(C)CC3)c(F)cc1Nc1ncc(C(F)(F)F)c(Oc2cccc3c2C(=O)N(C)C3)n1` [Compound 65], the pIC50 in the test with PC3 cells [1] was under 7.30; on FAK recombinant protein, under 7.30; with PC3 cells [2], under 5.70.
For `COc1cc(C2=NOC3(CCN(C)CC3)C2)ccc1Nc1ncc(C(F)(F)F)c(Oc2cccc3c2C(=O)N(C)C3)n1` [Compound 68], the pIC50 with PC3 cells [1] is 7.30 to 8.30; on FAK recombinant protein, 7.30 to 8.00; in the test with PC3 cells [2], under 5.70.
The like results for `COc1cc(C(=O)NC2CC3(CCN(C)CC3)C2)c(F)cc1Nc1ncc(C(F)(F)F)c(Oc2cccc3c2C(=O)N(C)C3C)n1` (stereo not drawn) [Compound 70, 4-((4-((1,2-dimethyl-3-oxoisoindol-4-yl)oxy)-5-(trifluoromethyl)pyrimidin-2-yl)amino)-2-fluoro-5-methoxy-N-(7-methyl-7-azaspiro[3.5]nonan-2-yl)benzamide] were, in that order, over 8.30, over 8.00 and under 5.70.
The corresponding values for `COc1cc(C(=O)NC2CC3(CCN(C)CC3)C2)ccc1Nc1ncc(C(F)(F)F)c(Oc2cccc3c2C(=O)N(C)C3C)n1` (stereo not drawn) [Compound 72] are over 8.30, over 8.00 and under 5.70.
The like results for `COc1cc(C(=O)NC2CCC3(CC2)CN(C)C3)ccc1Nc1ncc(C(F)(F)F)c(Oc2cccc3c2C(=O)N(C)C3C)n1` (stereo not drawn) [Compound 73] were, in that order, 7.30 to 8.30, over 8.00 and under 5.70.
As for `COc1cc(C(=O)NC2CC3(CCN(C)CC3)C2)c(F)cc1Nc1ncc(C(F)(F)F)c(Cc2cccc3c2C(=O)N(C)C3C)n1` (stereo not drawn) [Compound 74, 4-((4-((1,2-dimethyl-3-oxoisoindol-4-yl)methyl)-5-(trifluoromethyl)pyrimidin-2-yl)amino)-2-fluoro-5-methoxy-N-(7-methyl-7-azaspiro[3.5]nonan-2-yl)benzamide], the values for the pIC50 in the test with PC3 cells [1], at FAK recombinant protein and in the test on PC3 cells [2] were 7.30 to 8.30, over 8.00 and under 5.70, respectively.
Turning to `COc1cc(C(=O)NC2CC3(CCN(C)CC3)C2)ccc1Nc1ncc(C(F)(F)F)c(Cc2cccc3c2C(=O)N(C)C3C)n1` (stereo not drawn) [Compound 75], the pIC50 in the test with PC3 cells [1] was 7.30 to 8.30; on FAK recombinant protein it was over 8.00; in the test with PC3 cells [2], under 5.70.
The like results for `COc1cc(C(=O)NC2CC3(CCN(C)CC3)C2)c(F)cc1Nc1ncc(C(F)(F)F)c(Oc2cccc3c2C(=O)N(C)C3(C)C)n1` [Compound 76] were, in that order, 7.30 to 8.30, over 8.00 and under 5.70.
For `COc1cc(C(=O)NC2CCC3(CC2)CN(C)C3)c(F)cc1Nc1ncc(C(F)(F)F)c(Oc2cccc3c2C(=O)N(C)C3(C)C)n1` [Compound 77], the pIC50 was 7.30 to 8.30 with PC3 cells [1], over 8.00 at FAK recombinant protein and under 5.70 with PC3 cells [2].
The like results for `COc1cc(C(=O)NC2CC3(CCN(C)CC3)C2)ccc1Nc1ncc(C(F)(F)F)c(Oc2cccc3c2C(=O)N(C)C3(C)C)n1` [Compound 78] were, in that order, 7.30 to 8.30, over 8.00 and under 5.70.
The corresponding values for `COc1cc(C(=O)NC2CC3(CCN(C)CC3)C2)c(F)cc1Nc1ncc(C(F)(F)F)c(Oc2cccc3c2C(=O)N(OC)C3)n1` [Compound 79] are over 8.30, over 8.00 and under 5.70.
